Results as given in PubChem BioAssay (NCI).
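Briefly, cells in 96-well plates were exposed to five compound concentrations for 48 h, and endpoints were estimated by linear interpolation. TGI: concentration producing complete growth inhibition.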

Tests used:
Test in all cases: NCI anticancer screen, dose series, 48 h
[1] = tested on: LOX IMVI melanoma
[2] = tested on: HS 578T breast
[3] = tested on: RPMI-8226 leukemia
[4] = tested on: RXF 393 renal
[5] = tested on: UO-31 renal
[6] = tested on: MDA-MB-435
[7] = tested on: KM12 colon
[8] = tested on: NCI-H226 lung
[9] = tested on: HCC-2998 colon
[10] = tested on: SF-268 CNS
[11] = tested on: SK-MEL-28 melanoma
[12] = tested on: HT29 colon
[13] = tested on: NCI-H522 lung
[14] = tested on: MOLT-4 leukemia

| Compound | TGI [1] [µM] | TGI [2] [µM] | TGI [3] [µM] | TGI [4] [µM] | TGI [5] [µM] | TGI [6] [µM] | TGI [7] [µM] | TGI [8] [µM] | TGI [9] [µM] | TGI [10] [µM] | TGI [11] [µM] | TGI [12] [µM] | TGI [13] [µM] | TGI [14] [µM] |
| --- | --- | --- | --- | --- | --- | --- | --- | --- | --- | --- | --- | --- | --- | --- |
| Nc1ncnc2c1ncn2CC(OCP(=O)(O)O)Oc1ccccc1 (stereo unspecified) | > 100 | > 100 | > 100 | > 100 | > 100 | > 100 | > 100 | > 100 | > 100 | > 100 | > 100 | – | – | – |
| COC(CNC(=O)C(C)NC(=O)C(C)NC(=O)c1ccccc1)OC (stereo unspecified) | – | > 100 | > 100 | > 100 | – | > 100 | > 100 | > 100 | – | > 100 | – | > 100 | > 100 | > 100 |
| CC(C)(C)OC(=O)C(C1NC(C(=O)O)C(C)(C)S1)N1C(=O)c2ccccc2C1=O (stereo unspecified) | > 100 | > 100 | > 100 | > 100 | > 100 | > 100 | > 100 | – | > 100 | > 100 | > 100 | > 100 | > 100 | > 100 |
| Cc1sc(N=Nc2c(O)[nH]c3ccccc23)nc1-c1ccccc1 | 36 | – | – | 34.9 | 29.9 | 66.8 | 43.7 | > 100 | 51.1 | 38.5 | 79.8 | 54.5 | – | 65.4 |
| C[n+]1c2ccccc2c(NC(CCC(N)=O)C(=O)O)c2ccccc21 (stereo unspecified) | – | – | > 100 | > 100 | > 100 | – | > 100 | > 100 | > 100 | > 100 | – | > 100 | > 100 | > 100 |
| CCCCCCCCCCCCCCCCCC(=O)NCCCNCCCNC(=O)CCCCCCCCCCCCCCCCC | > 100 | – | > 100 | – | > 100 | – | – | > 100 | > 100 | > 100 | > 100 | > 100 | – | > 100 |
| Cc1ccc(N2C(=O)/C(=c3\s/c(=C(/N)O)c(=N)n3-c3ccccc3)SC2=S)cc1 | – | – | > 100 | – | > 100 | – | > 100 | > 100 | > 100 | > 100 | > 100 | > 100 | > 100 | > 100 |
| CC(=O)OCCn1c(Cc2ccc([N+](=O)[O-])cc2)nn(C(C)=O)c1=O | > 100 | > 100 | > 100 | – | > 100 | > 100 | > 100 | > 100 | > 100 | > 100 | > 100 | > 100 | > 100 | > 100 |
| O=C(c1nsc(Cl)c1Cl)N1CCCCC1 | > 100 | > 100 | > 100 | > 100 | > 100 | > 100 | > 100 | > 100 | > 100 | > 100 | > 100 | > 100 | – | > 100 |
| CC(C)CCNC(=O)c1ccc(CNC(=O)/C=C/c2ccc(-c3ccccc3[N+](=O)[O-])o2)cc1 | > 100 | – | > 100 | > 100 | > 100 | > 100 | > 100 | 62.9 | > 100 | 63.1 | > 100 | – | – | > 100 |
| CNC(Cc1ccccc1)c1cccc(OC)c1O (stereo unspecified) | > 100 | > 100 | – | > 100 | > 100 | > 100 | > 100 | > 100 | – | > 100 | > 100 | > 100 | > 100 | > 100 |
| Nc1nc(Nc2ccc(Cl)cc2)sc1C(=O)c1cc2ccccc2oc1=O | > 100 | > 100 | > 100 | > 100 | > 100 | > 100 | > 100 | > 100 | > 100 | > 100 | > 100 | > 100 | – | – |
| CCOc1ccc(N=Cc2cc(OC)c(OC)c(OC)c2)cc1 | > 100 | – | 45.1 | > 100 | > 100 | – | > 100 | – | – | > 100 | > 100 | > 100 | > 100 | > 100 |
| CC(=O)Oc1ccc(-c2cc3ccccc3oc2=O)cc1OC(C)=O | > 100 | > 100 | > 100 | – | > 100 | > 100 | 33.2 | > 100 | 59.3 | > 100 | > 100 | > 100 | > 100 | > 100 |
| CC1=NN(C(=O)c2ccc(Cl)cc2)C(=O)/C1=C/c1cccc(O)c1 | > 100 | – | > 100 | > 100 | > 100 | – | > 100 | > 100 | > 100 | > 100 | > 100 | > 100 | > 100 | > 100 |
| CC(C)(C)OC(=O)C1/C(=C/CO)CN1C(=O)OC(C)(C)C (stereo unspecified) | > 100 | > 100 | > 100 | – | > 100 | > 100 | – | – | > 100 | > 100 | > 100 | > 100 | – | > 100 |
| CNC(=O)N(CCC#N)CCN(CCN(C(=O)NC)c1ccccc1)C(=O)NC | > 100 | – | > 100 | > 100 | > 100 | > 100 | > 100 | > 100 | > 100 | – | > 100 | > 100 | > 100 | > 100 |
| CN1c2ccccc2C2c3c(O)ccc(O)c3C=C([N+](=O)[O-])C21 (stereo unspecified) | – | – | – | 15.5 | 2.1 | 0.366 | 1.82 | > 92.9 | 2.8 | 6.54 | 11.3 | 0.568 | 0.17 | > 27.4 |
| Nc1nc(Cl)cc(Nc2ccc3c(c2)CCC3)n1 | > 100 | > 100 | 65.1 | – | > 100 | > 100 | > 100 | > 100 | > 100 | > 100 | > 100 | > 100 | > 100 | 84.7 |
